The results in this text go back to US20240043404A1 (AbbVie Inc., priority 2009, published 2024).

The assay deals with RS4;11 cells. As to the kind of experiment: RS4;11 cell viability assay (CellTiter Glo).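 Further: acute lymphoblastic leukemia line RS4,11, EC50 derived from percentage of viable cells after treatment relative to untreated controls, cell killing taken as a measure of Bcl-2 inhibition.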 The assay is classed as cell-based, human. The note with it: read-out: RS4. On the technique in general: ATP-based viability assays read luminescence as a measure of living cells.
Where [1] appears, read: Homo sapiens, RS4-11, 48 h, 50,000 cells per well, 10% human serum, 48 hours, 11 EC50 Values.
Where [2] appears, read: Homo sapiens, RS4-11, Table 5, direct comparison Z=N with corresponding analogs Z=C, 11 EC50.
[3] abbreviates: Homo sapiens, RS4-11, Table 4, selected compounds in U.S. Pat. Application No. 12/631404, 11 EC50.

Like-named read-outs stand apart in the source and are kept apart here.

Method: The acute lymphoblastic leukemia (ALL) cell line RS4;11 was used as the primary human cell line to assess the cellular activity of Bcl-2 selective agents in vitro and their efficacy in vivo.
Cell cytotoxicity EC50 values were assessed using CellTiter Glo (Promega) according to the manufacturer's recommendations. The EC50 values were determined as a percentage of viable cells following treatment compared to the untreated control cells.

With “4-{4-[(4′-chloro-1,1′-biphenyl-2-yl)methyl]piperazin-1-yl}-2-(1H-indol-5-yloxy)-N-({3-nitro-4-[(tetrahydro-2H-pyran-4-ylmethyl)amino]phenyl}sulfonyl) benzamide [Example 87]”, the EC50 (Table 5, direct comparison Z=N with corresponding analogs Z=C, 11 EC50) worked out at 1.18 µM.

With `CC1(C)CCC(CN2CCN(c3ccc(C(=O)NS(=O)(=O)c4ccc(NC5CCN([C@H]6CCOC[C@H]6F)CC5)c([N+](=O)[O-])c4)c(Oc4cnc5[nH]ccc5c4)c3)CC2)=C(c2ccc(Cl)cc2)C1` (relative stereo) [Example 115, 4-(4-{[2-(4-chlorophenyl)-4,4-dimethylcyclohex-1-en-1-yl]methyl}piperazin-1-yl)-N-{[4-({1-[cis-3-fluorotetrahydro-2H-pyran-4-yl]piperidin-4-yl}amino)-3-nitrophenyl]sulfonyl}-2-(1H-pyrrolo[2,3-b]pyridin-5-yloxy)benzamide], the EC50 under setting [1] came out at 0.0118 µM.

On to `CC1(C)CCC(CN2CCN(c3ccc(C(=O)NS(=O)(=O)c4ccc(OC[C@@H]5CN(C6COC6)C[C@H]5CF)c([N+](=O)[O-])c4)c(Oc4cnc5[nH]ccc5c4)c3)CC2)=C(c2ccc(Cl)cc2)C1` (relative stereo) [Example 137, 4-(4-{[2-(4-chlorophenyl)-4,4-dimethylcyclohex-1-en-1-yl]methyl}piperazin-1-yl)-N-[(4-{[trans-4-(fluoromethyl)-1-oxetan-3-ylpyrrolidin-3-yl]methoxy}-3-nitrophenyl)sulfonyl]-2-(1H-pyrrolo[2,3-b]pyridin-5-yloxy)benzamide], for which, under setting [1], the EC50 was determined as 0.0127 µM.

As to `O=C(NS(=O)(=O)c1ccc(NCC2CCOCC2)c([N+](=O)[O-])c1)c1ccc(N2CCN(Cc3ccccc3-c3ccc(Cl)cc3)CC2)cc1Oc1cnc2[nH]ccc2c1` [Example 1, 4-{4-[(4′-chloro-1,1′-biphenyl-2-yl)methyl]piperazin-1-yl}-N-({3-nitro-4-[(tetrahydro-2H-pyran-4-ylmethyl)amino]phenyl}sulfonyl)-2-(1H-pyrrolo[2,3-b]pyridin-5-yloxy)benzamide], the EC50 under setting [1] stood at 0.712 µM and the EC50 under setting [2] was found to be 0.712 µM.

Consider `O=C(NS(=O)(=O)c1ccc(NCCCN2CCOCC2)c([N+](=O)[O-])c1)c1ccc(N2CCN(Cc3ccccc3-c3ccc(Cl)cc3)CC2)cc1Oc1cnc2[nH]ccc2c1` [Example 2, 4-{4-[(4′-chloro-1,1′-biphenyl-2-yl)methyl]piperazin-1-yl}-N-({4-[(3-morpholin-4-ylpropyl)amino]-3-nitrophenyl}sulfonyl)-2-(1H-pyrrolo[2,3-b]pyridin-5-yloxy)benzamide], for which the EC50 reads like this: under setting [1], 0.783 µM; under setting [2], 0.783 µM.

With `CC1(C)CCC(CN2CCN(c3ccc(C(=O)NS(=O)(=O)c4ccc(NC5CCN(C6CCOCC6)CC5)c([N+](=O)[O-])c4)c(Oc4cnc5[nH]ccc5c4)c3)CC2)=C(c2ccc(Cl)cc2)C1` [Example 3, 4-(4-{[2-(4-chlorophenyl)-4,4-dimethylcyclohex-1-en-1-yl]methyl}piperazin-1-yl)-N-({3-nitro-4-[(1-tetrahydro-2H-pyran-4-ylpiperidin-4-yl)amino]phenyl}sulfonyl)-2-(1H-pyrrolo[2,3-b]pyridin-5-yloxy)benzamide], the EC50 was determined as 0.0142 µM under setting [1] and 0.0142 µM under setting [2].

As for `CC1(C)CCC(CN2CCN(c3ccc(C(=O)NS(=O)(=O)c4ccc(NCC5CCOCC5)c([N+](=O)[O-])c4)c(Oc4cnc5[nH]ccc5c4)c3)CC2)=C(c2ccc(Cl)cc2)C1` [Example 5, 4-(4-{[2-(4-chlorophenyl)-4,4-dimethylcyclohex-1-en-1-yl]methyl}piperazin-1-yl)-N-({3-nitro-4-[(tetrahydro-2H-pyran-4-ylmethyl)amino]phenyl}sulfonyl)-2-(1H-pyrrolo[2,3-b]pyridin-5-yloxy)benzamide], the EC50 runs as follows: under setting [1], 0.0124 µM; under setting [2], 0.012 µM.

As for `CN1CCN(Nc2ccc(S(=O)(=O)NC(=O)c3ccc(N4CCN(CC5=C(c6ccc(Cl)cc6)CC(C)(C)CC5)CC4)cc3Oc3cnc4[nH]ccc4c3)cc2[N+](=O)[O-])CC1` [Example 6, 4-(4-{[2-(4-chlorophenyl)-4,4-dimethylcyclohex-1-en-1-yl]methyl}piperazin-1-yl)-N-({4-[(4-methylpiperazin-1-yl)amino]-3-nitrophenyl}sulfonyl)-2-(1H-pyrrolo[2,3-b]pyridin-5-yloxy)benzamide], the EC50 was 0.0349 µM under setting [1] and 0.035 µM under setting [2].

On to `CN1CCC(Nc2ccc(S(=O)(=O)NC(=O)c3ccc(N4CCN(CC5=C(c6ccc(Cl)cc6)CC(C)(C)CC5)CC4)cc3Oc3cccc4[nH]c5ccccc5c34)cc2[N+](=O)[O-])CC1` [Example 7, 2-(9H-carbazol-4-yloxy)-4-(4-{[2-(4-chlorophenyl)-4,4-dimethylcyclohex-1-en-1-yl]methyl}piperazin-1-yl)-N-({4-[(1-methylpiperidin-4-yl)amino]-3-nitrophenyl}sulfonyl)benzamide], for which the EC50 under setting [1] stood at 0.192 µM.

Turning to `CC1(C)CCC(CN2CCN(c3ccc(C(=O)NS(=O)(=O)c4ccc(NCCCN5CCCC5)c([N+](=O)[O-])c4)c(Oc4cccc5[nH]c6ccccc6c45)c3)CC2)=C(c2ccc(Cl)cc2)C1` [Example 8, 2-(9H-carbazol-4-yloxy)-4-(4-{[2-(4-chlorophenyl)-4,4-dimethylcyclohex-1-en-1-yl]methyl}piperazin-1-yl)-N-({3-nitro-4-[(3-pyrrolidin-1-ylpropyl)amino]phenyl}sulfonyl)benzamide], the EC50 under setting [1] was determined as 0.158 µM.

Consider `CC1(C)CCC(CN2CCN(c3ccc(C(=O)NS(=O)(=O)c4ccc(NC[C@@H]5CCCOC5)c([N+](=O)[O-])c4)c(Oc4cnc5[nH]ccc5c4)c3)CC2)=C(c2ccc(Cl)cc2)C1` [Example 11, 4-(4-{[2-(4-chlorophenyl)-4,4-dimethylcyclohex-1-en-1-yl]methyl}piperazin-1-yl)-N-[(3-nitro-4-{[(3S)-tetrahydro-2H-pyran-3-ylmethyl]amino}phenyl)sulfonyl]-2-(1H-pyrrolo[2,3-b]pyridin-5-yloxy)benzamide], for which the EC50 worked out at 0.0139 µM under setting [1] and 0.014 µM under setting [2].

`CC1(C)CCC(CN2CCN(c3ccc(C(=O)NS(=O)(=O)c4ccc5ccccc5c4)c(Oc4cnc5[nH]ccc5c4)c3)CC2)=C(c2ccc(Cl)cc2)C1` [Example 14, 4-(4-{[2-(4-chlorophenyl)-4,4-dimethylcyclohex-1-en-1-yl]methyl}piperazin-1-yl)-N-(2-naphthylsulfonyl)-2-(1H-pyrrolo[2,3-b]pyridin-5-yloxy)benzamide]: the EC50 under setting [1] turned out to be 3.89 µM.

For `COCCNc1ccc(S(=O)(=O)NC(=O)c2ccc(N3CCN(CC4=C(c5ccc(Cl)cc5)CC(C)(C)CC4)CC3)cc2Oc2cnc3[nH]ccc3c2)cc1S(=O)(=O)C(F)(F)F` [Example 16, 4-(4-{[2-(4-chlorophenyl)-4,4-dimethylcyclohex-1-en-1-yl]methyl}piperazin-1-yl)-N-({4-[(2-methoxyethyl)amino]-3-[(trifluoromethyl)sulfonyl]phenyl}sulfonyl)-2-(1H-pyrrolo[2,3-b]pyridin-5-yloxy)benzamide], the EC50 is, setting by setting: under setting [1], 1.21 µM; under setting [2], 1.21 µM.

In the case of `CC1(C)CCC(CN2CCN(c3ccc(C(=O)NS(=O)(=O)c4ccc(NCC5CCOCC5)c(S(=O)(=O)C(F)(F)F)c4)c(Oc4cnc5[nH]ccc5c4)c3)CC2)=C(c2ccc(Cl)cc2)C1` [Example 17, 4-(4-{[2-(4-chlorophenyl)-4,4-dimethylcyclohex-1-en-1-yl]methyl}piperazin-1-yl)-2-(1H-pyrrolo[2,3-b]pyridin-5-yloxy)-N-({4-[(tetrahydro-2H-pyran-4-ylmethyl)amino]-3-[(trifluoromethyl)sulfonyl]phenyl}sulfonyl)benzamide], the EC50 reads like this: under setting [1], 0.475 µM; under setting [2], 0.475 µM.

For `CC1(C)CCC(CN2CCN(c3ccc(C(=O)NS(=O)(=O)c4ccc(NCC5CCOCC5)c([N+](=O)[O-])c4)c(Oc4ccc5[nH]ccc5c4)c3)CC2)=C(c2ccc(Cl)cc2)C1` [Example 18, 4-(4-{[2-(4-chlorophenyl)-4,4-dimethylcyclohex-1-en-1-yl]methyl}piperazin-1-yl)-2-(1H-indol-5-yloxy)-N-({3-nitro-4-[(tetrahydro-2H-pyran-4-ylmethyl)amino]phenyl}sulfonyl)benzamide], the EC50 by setting is: under setting [1], 0.086 µM; under setting [2], 0.086 µM.

On to `CC1(C)CCC(CN2CCN(c3ccc(C(=O)NS(=O)(=O)c4ccc(N[C@H]5CC[C@H](N6CCOCC6)CC5)c([N+](=O)[O-])c4)c(Oc4ccc5[nH]ccc5c4)c3)CC2)=C(c2ccc(Cl)cc2)C1` [Example 19, Trans-4-(4-{[2-(4-chlorophenyl)-4,4-dimethylcyclohex-1-en-1-yl]methyl}piperazin-1-yl)-2-(1H-indol-5-yloxy)-N-({4-[(4-morpholin-4-ylcyclohexyl)amino]-3-nitrophenyl}sulfonyl)benzamide], for which the EC50 under setting [1] came out at 0.465 µM, the EC50 under setting [3] is 0.465 µM and the EC50 under setting [2] came out at 0.465 µM.

Take `COCCNc1ccc(S(=O)(=O)NC(=O)c2ccc(N3CCN(CC4=C(c5ccc(Cl)cc5)CC(C)(C)CC4)CC3)cc2Oc2ccc3[nH]ccc3c2)cc1[N+](=O)[O-]` [Example 20, 4-(4-{[2-(4-chlorophenyl)-4,4-dimethylcyclohex-1-en-1-yl]methyl}piperazin-1-yl)-2-(1H-indol-5-yloxy)-N-({4-[(2-methoxyethyl)amino]-3-nitrophenyl}sulfonyl)benzamide]: the EC50 under setting [1] was found to be 0.191 µM, the EC50 under setting [3] turned out to be 0.191 µM and the EC50 under setting [2] was found to be 0.191 µM.

Take `CC1(C)CCC(CN2CCN(c3ccc(C(=O)NS(=O)(=O)c4ccc(NC[C@@H]5CCCOC5)c([N+](=O)[O-])c4)c(Oc4ccc5[nH]ccc5c4)c3)CC2)=C(c2ccc(Cl)cc2)C1` [Example 21, 4-(4-{[2-(4-chlorophenyl)-4,4-dimethylcyclohex-1-en-1-yl]methyl}piperazin-1-yl)-2-(1H-indol-5-yloxy)-N-[(3-nitro-4-{[(3S)-tetrahydro-2H-pyran-3-ylmethyl]amino}phenyl)sulfonyl]benzamide]: the EC50 runs as follows: under setting [1], 0.062 µM; under setting [2], 0.062 µM.
